In paper PMC6466588, “Characterization and Antimicrobial Activity of Amphiphilic Peptide AP3 and Derivative Sequences” (Antibiotics, 2019):
No end group written: not given here.

Columns and labels:
P. aeruginosa ATCC10145 = assay type: cell-based; conditions: ATCC10145, 18 h
Protocol: (§1) The antibacterial activities of each peptide were determined against various Gram-negative and Gram-positive bacteria using minimum inhibitory concentration (MIC) assays. The MIC is defined as the lowest concentration of peptide that prevents growth of bacteria using the optical density at 600 nm under standard growth conditions.
(§2) Bacteria were streaked from frozen stocks onto Difco LB-miller agar (BD, Franklin Lakes, NJ, USA) plates (E. coli MG1655 ATCC 47076, E. coli D31 [34], S. aureus ATCC25923, P. aeruginosa ATCC10145, K. pneumoniae 700603). Streaked plates were grown overnight at 37 °C and subsequently stored at 4 °C.
(§3) To prepare overnight cultures, a single colony of each bacterial strain was added to LB broth (Difco) in sterile culture tubes. Tubes were placed in the shaking incubator at 37 °C overnight to allow for sufficient bacterial growth. After incubation, dilutions of the overnight culture were made in LB (1:100) or Muller-Hinton broth (Criterion) (1:250) for MIC assay protocols (Hardy Diagnostics, Santa Maria, CA, USA).
(§4) Minimal inhibitory concentrations (MIC) were determined for each peptide The MIC assay was set up by adding 10 µL of the peptide stock solutions to wells of a sterile 96-well plate to which […] of diluted bacterial culture was added. The final bacterial load was ~5.0 × 10^5 cfu/mL as calculated from the Optical Density^@ 600 nm (OD600) measurements of a log-phase culture. The assay plate was incubated at 37 °C for 18 h. Bacterial growth was assayed by absorbance at OD600 using Multiskan microplate reader (Thermo Fisher, Waltham, MA, USA). […] All MIC values are averages of at least triplicate samples.

K. pneumoniae 700603 = assay type: cell-based; conditions: 700603, 18 h
Protocol: as §1, §2, §3, §4

S. aureus ATCC25923 = assay type: cell-based; conditions: ATCC25923, 18 h
Protocol: as §1, §2, §3, §4

E. coli = assay type: cell-based; conditions: 18 h
Protocol: as §1, §2, §3, §4

HEK-293 cells = assay: Mammalian cell viability, MTT assay; assay type: cell-based, Human; conditions: HEK-293, MTT, 24 h, 37 °C, triplicate
Protocol: The cells were treated with five different concentrations of each peptide ranging from 0.0015 µM to 15 µM for a total of 24 h before viability measurements were performed.
Figure 6 Mammalian cell viability assay—Effects of AP3 peptides on HEK-293 cell viability assayed by MTT metabolic breakdown. A standard density of HEK-293 cells was incubated with serially diluted peptides for 24 h at 37 °C before the assay was performed. Percent viability was normalized to MTT breakdown observed in untreated controls. Color coding of the graph is AP3 (red), AP3K (blue), APX (purple), APX-17 (black), and APX-12 (green). All data represent the average of at least three replicates and error bars represent the standard deviation.
Cellular toxicity of specific peptides was determined by MTT ((3-(4,5-Dimethylthiazol-2-yl)-2,5-Diphenyltetrazolium Bromide)) assay. Human embryonic kidney (HEK) 293 cells with a lenti-CRE luciferase reporter gene were seeded in 96-well plates at a density of 1.5 × 10^4 cells per well and incubated with 5% CO2 at 37 °C for 24 h. Then, cells were treated with appropriate concentrations of peptides (0.0015–15 µM) and control for 24 h. After treatment for 24 h, 10 µL of MTT solution (5 mg MTT/mL PBS) was added to all wells and incubated for 4 h. Then, DMSO was added as a solubilizing agent and the absorbance was recorded at 540 nm. Each peptide concentration was performed in triplicate.

Substance	MIC (P. aeruginosa ATCC10145) [µM]	MIC (K. pneumoniae 700603) [µM]	MIC (S. aureus ATCC25923) [µM]	MIC (E. coli) [µM]	cytotoxicity, dead cells (HEK-293 cells; 1.5 µM peptide)	cytotoxicity, dead cells (HEK-293 cells; 15 µM peptide)
KKAEVKTVGKLALKHWL-NH2 [APX-17]	>8.00	>8.00	>8.00	>8.00	–	–
GWKTLLKKAEVKTVGKLALKHYL-NH2 [AP3K]	0.29	>9.30	2.32	9.3	~ 18%	~ 40%
KTVGKLALKHWL-NH2 [APX-12]	>15.0	>15.0	>15.0	>15.0	–	–
GYRTLLKKAEVKTVGKLALKHWL-NH2 [APX]	15	>15.0	15	>15.0	–	–
GWRTLLKKAEVKTVGKLALKHYL-NH2 [AP3]	–	4.15	4.15	8.3	~ 18%	–
